According to ChEMBL document CHEMBL3352403, “New class of methyl tetrazole based hybrid of (Z)-5-benzylidene-2-(piperazin-1-yl)thiazol-4(%H)-one as potent antitubercular agents” (Bioorg Med Chem Lett, 2014):
Values after ≈ are worked out from the molar mass of the structure shown. Values joined by “and” are separate entries in the source; they are usually repeats but may differ in a detail not shown here. Identical values can stand only once.

Columns and labels:
[1] = tested on: Mycobacterium tuberculosis; assay: Antitubercular activity against Mycobacterium tuberculosis H37Rv after 4 weeks; assay type: functional; conditions: 672 h
[2] = Cytotoxicity against mouse MBMDMphi cells after 48 hrs by MTS assay; assay type: cell-based
[3] = Cytotoxicity against african green monkey Vero cells after 24 hrs by MTS assay; assay type: cell-based; conditions: chlorocebus sabaeus
[4] = tested on: Mycobacterium tuberculosis; assay: Ratio of ethambutol MIC to compound MIC for Mycobacterium tuberculosis H37Rv after 4 weeks; assay type: functional

Row | SMILES | MIC [1] | CC50 at 48 h [2] [µM] | CC50 at 24 h [3] [µM] | Ratio [4]
1 | CC(C)(C)n1nnnc1C(c1ccccc1)N1CCN(C2=NC(=O)/C(=C/c3ccccc3)S2)CC1 (centres undefined) | > 12.5 µg/mL | – | – | –
2 | CC(C)(C)n1nnnc1C(c1ccccc1F)N1CCN(C2=NC(=O)/C(=C/c3ccccc3)S2)CC1 (centres undefined) | 6.25 µg/mL and 12.3 µM | > 100 | > 100 | –
3 | CC(C)(C)n1nnnc1C(c1ccc(F)cc1)N1CCN(C2=NC(=O)/C(=C/c3ccccc3)S2)CC1 (centres undefined) | 1.56 µg/mL and 3.08 µM | > 100 | > 100 | 3
4 | CC(C)(C)n1nnnc1C(c1ccccc1Cl)N1CCN(C2=NC(=O)/C(=C/c3ccccc3)S2)CC1 (centres undefined) | 12.5 µg/mL and 23.9 µM | > 100 | > 100 | –
5 | CC(C)(C)n1nnnc1C(c1ccc(Cl)cc1)N1CCN(C2=NC(=O)/C(=C/c3ccccc3)S2)CC1 (centres undefined) | 6.25 µg/mL and 11.9 µM | > 100 | > 100 | –
6 | CC(C)c1ccc(C(c2nnnn2C(C)(C)C)N2CCN(C3=NC(=O)/C(=C/c4ccccc4)S3)CC2)cc1 (centres undefined) | > 12.5 µg/mL | > 100 | > 100 | –
7 | COc1ccc(C(c2nnnn2C(C)(C)C)N2CCN(C3=NC(=O)/C(=C/c4ccccc4)S3)CC2)cc1 (centres undefined) | 1.56 µg/mL and 3.01 µM | > 100 | > 100 | 3
8 | COc1ccc(C(c2nnnn2C(C)(C)C)N2CCN(C3=NC(=O)/C(=C/c4ccccc4)S3)CC2)cc1OC (centres undefined) | 6.25 µg/mL and 11.4 µM | > 100 | > 100 | –
9 | COc1cc(C(c2nnnn2C(C)(C)C)N2CCN(C3=NC(=O)/C(=C/c4ccccc4)S3)CC2)cc(OC)c1OC (centres undefined) | 6.25 µg/mL and 10.8 µM | > 100 | > 100 | –
10 | CC(C)(C)n1nnnc1C(c1ccncc1)N1CCN(C2=NC(=O)/C(=C/c3ccccc3)S2)CC1 (centres undefined) | 6.25 µg/mL and 12.8 µM | – | – | –
11 | CC(C)(C)n1nnnc1C(c1cccnc1)N1CCN(C2=NC(=O)/C(=C/c3ccccc3)S2)CC1 (centres undefined) | 6.25 µg/mL and 12.8 µM | > 100 | > 100 | –
12 | CC(C)(C)n1nnnc1C(c1ccoc1)N1CCN(C2=NC(=O)/C(=C/c3ccccc3)S2)CC1 (centres undefined) | 6.25 µg/mL and 13.1 µM | 45.9 | > 100 | –
13 | O=C1N=C(N2CCN(C(c3ccccc3)c3nnnn3C3CCCCC3)CC2)S/C1=C\c1ccccc1 (centres undefined) | 6.25 µg/mL and 12.1 µM | > 100 | > 100 | –
14 | O=C1N=C(N2CCN(C(c3ccccc3F)c3nnnn3C3CCCCC3)CC2)S/C1=C\c1ccccc1 (centres undefined) | 12.5 µg/mL (≈ 23.5 µM) | – | – | –
15 | O=C1N=C(N2CCN(C(c3ccc(F)cc3)c3nnnn3C3CCCCC3)CC2)S/C1=C\c1ccccc1 (centres undefined) | 6.25 µg/mL and 11.7 µM | > 100 | > 100 | –
16 | O=C1N=C(N2CCN(C(c3ccccc3Cl)c3nnnn3C3CCCCC3)CC2)S/C1=C\c1ccccc1 (centres undefined) | 6.25 µg/mL and 11.4 µM | > 100 | > 100 | –
17 | O=C1N=C(N2CCN(C(c3ccc(Cl)cc3)c3nnnn3C3CCCCC3)CC2)S/C1=C\c1ccccc1 (centres undefined) | 12.5 µg/mL and 22.8 µM | – | – | –
18 | CC(C)c1ccc(C(c2nnnn2C2CCCCC2)N2CCN(C3=NC(=O)/C(=C/c4ccccc4)S3)CC2)cc1 (centres undefined) | 6.25 µg/mL and 11.2 µM | > 100 | > 100 | –
19 | COc1ccc(C(c2nnnn2C2CCCCC2)N2CCN(C3=NC(=O)/C(=C/c4ccccc4)S3)CC2)cc1 (centres undefined) | 6.25 µg/mL and 11.5 µM | – | – | –
20 | COc1ccc(C(c2nnnn2C2CCCCC2)N2CCN(C3=NC(=O)/C(=C/c4ccccc4)S3)CC2)cc1OC (centres undefined) | 6.25 µg/mL and 10.9 µM | – | – | –
21 | COc1cc(C(c2nnnn2C2CCCCC2)N2CCN(C3=NC(=O)/C(=C/c4ccccc4)S3)CC2)cc(OC)c1OC (centres undefined) | 6.25 µg/mL and 10.3 µM | > 100 | > 100 | –
22 | O=C1N=C(N2CCN(C(c3ccncc3)c3nnnn3C3CCCCC3)CC2)S/C1=C\c1ccccc1 (centres undefined) | 6.25 µg/mL and 12.1 µM | – | – | –
23 | O=C1N=C(N2CCN(C(c3cccnc3)c3nnnn3C3CCCCC3)CC2)S/C1=C\c1ccccc1 (centres undefined) | 6.25 µg/mL and 12.1 µM | – | – | –
24 | O=C1N=C(N2CCN(C(c3ccoc3)c3nnnn3C3CCCCC3)CC2)S/C1=C\c1ccccc1 (centres undefined) | 6.25 µg/mL and 12.4 µM | – | – | –
25 | CC[C@@H](CO)NCCN[C@@H](CC)CO [ETHAMBUTOL] | 2 µg/mL and 9.78 µM | – | – | –
26 | NNC(=O)c1ccncc1 [ISONIAZID] | 0.02 µg/mL and 0.14 µM | – | – | –
27 | NC(=O)c1cnccn1 [PYRAZINAMIDE] | 12.5 µg/mL and 102 µM | – | – | –
